Experimental data reported in article PMC6274419, “Synthesis and Anticancer Activities of Glycyrrhetinic Acid Derivatives” (Molecules, 2016).
Structures can show the parent of a compound that is named as a salt.

Row | SMILES | melting point
1 | CCOC(=O)/C=C/c1ccc(OC(=O)[C@@]2(C)CC[C@]3(C)CC[C@]4(C)C(=CC(=O)[C@@H]5[C@@]6(C)CC[C@H](OC(=O)[C@@H](N)CCSC)C(C)(C)[C@@H]6CC[C@]54C)[C@@H]3C2)c(OC)c1 (as salt: hydrochloride) [Compound 43, Ferulic acid ethyl ester 3β-(l-methionine)-11-oxo-olean-12-en-30-oate hydrochloride] | 191 to 194 °C
2 | CCOC(=O)/C=C/c1ccc(OC(=O)[C@@]2(C)CC[C@]3(C)CC[C@]4(C)C(=CC(=O)[C@@H]5[C@@]6(C)CC[C@H](OC(=O)[C@@H](N)CC[Se]C)C(C)(C)[C@@H]6CC[C@]54C)[C@@H]3C2)c(OC)c1 (as salt: hydrochloride) [Compound 44, Ferulic acid ethyl ester 3β-(l-selenomethionine)-11-oxo-olean-12-en-30-oate hydrochloride] | 205 to 207 °C
3 | COC(=O)/C=C/c1ccc(OC(=O)[C@@]2(C)CC[C@]3(C)CC[C@]4(C)C(=CC(=O)[C@@H]5[C@@]6(C)CC[C@H](OC(=O)[C@@H](N)CCSC)C(C)(C)[C@@H]6CC[C@]54C)[C@@H]3C2)cc1 (as salt: hydrochloride) [Compound 45, trans-4-Hydroxycinnamic acid methyl ester 3β-(l-methionine)-11-oxo-olean-12-en-30-oate hydrochloride] | 205 to 207 °C
4 | COC(=O)/C=C/c1ccc(OC(=O)[C@@]2(C)CC[C@]3(C)CC[C@]4(C)C(=CC(=O)[C@@H]5[C@@]6(C)CC[C@H](OC(=O)[C@@H](N)CC[Se]C)C(C)(C)[C@@H]6CC[C@]54C)[C@@H]3C2)cc1 (as salt: hydrochloride) [Compound 46, trans-4-Hydroxycinnamic acid methyl ester 3β-(l-selenomethionine)-11-oxo-olean-12-en-30-oate hydrochloride] | 218 to 221 °C
5 | CCOC(=O)/C=C/c1ccc(OC(=O)[C@@]2(C)CC[C@]3(C)CC[C@]4(C)C(=CC(=O)[C@@H]5[C@@]6(C)CC[C@H](OC(=O)[C@@H](N)CCSC)C(C)(C)[C@@H]6CC[C@]54C)[C@@H]3C2)cc1 (as salt: hydrochloride) [Compound 47, trans-4-Hydroxycinnamic acid ethyl ester 3β-(l-methionine)-11-oxo-olean-12-en-30-oatehydrochloride] | 202 to 204 °C
6 | CCOC(=O)/C=C/c1ccc(OC(=O)[C@@]2(C)CC[C@]3(C)CC[C@]4(C)C(=CC(=O)[C@@H]5[C@@]6(C)CC[C@H](OC(=O)[C@@H](N)CC[Se]C)C(C)(C)[C@@H]6CC[C@]54C)[C@@H]3C2)cc1 (as salt: hydrochloride) [Compound 48, trans-4-Hydroxycinnamic acid ethyl ester 3β-(l-selenomethionine)-11-oxo-olean-12-en-30-oate hydrochloride] | 208 to 211 °C
7 | COC(=O)/C=C/c1ccc(OC)c(OC(=O)[C@@]2(C)CC[C@]3(C)CC[C@]4(C)C(=CC(=O)[C@@H]5[C@@]6(C)CC[C@H](OC(=O)[C@@H](N)CCSC)C(C)(C)[C@@H]6CC[C@]54C)[C@@H]3C2)c1 (as salt: hydrochloride) [Compound 49, Isoferulic acid methyl ester 3β-(l-methionine)-11-oxo-olean-12-en-30-oate hydrochloride] | 199 to 201 °C
8 | COC(=O)/C=C/c1ccc(OC)c(OC(=O)[C@@]2(C)CC[C@]3(C)CC[C@]4(C)C(=CC(=O)[C@@H]5[C@@]6(C)CC[C@H](OC(=O)[C@@H](N)CC[Se]C)C(C)(C)[C@@H]6CC[C@]54C)[C@@H]3C2)c1 (as salt: hydrochloride) [Compound 50, Isoferulic acid methyl ester 3β-(l-selenomethionine)-11-oxo-olean-12-en-30-oate hydrochloride] | 201 to 203 °C
